One data set addresses T1, squalene synthase (Homo sapiens, UniProt P37268).
T1 construct: endogenous in cells; host or cells: HepG2 (human hepatic cancer cells); sediment of the 105000 x g centrifugation (microsomal fraction)
T1 sequence (P37268 1-417): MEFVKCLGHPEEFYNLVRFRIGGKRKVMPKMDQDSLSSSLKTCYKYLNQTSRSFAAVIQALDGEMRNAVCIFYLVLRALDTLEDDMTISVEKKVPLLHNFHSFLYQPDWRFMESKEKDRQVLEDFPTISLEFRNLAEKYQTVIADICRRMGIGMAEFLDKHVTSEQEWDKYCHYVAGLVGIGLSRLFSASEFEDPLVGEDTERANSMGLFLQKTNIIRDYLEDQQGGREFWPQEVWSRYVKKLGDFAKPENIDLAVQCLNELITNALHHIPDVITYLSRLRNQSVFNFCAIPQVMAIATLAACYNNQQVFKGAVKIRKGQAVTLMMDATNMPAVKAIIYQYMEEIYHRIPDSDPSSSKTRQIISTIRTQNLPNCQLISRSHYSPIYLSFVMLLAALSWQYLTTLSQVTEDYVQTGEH
Briefly: Squalene synthase inhibiting activity (Test Example 1). The class given is biochemical. The conditions noted are these: enzyme solution from human hepatic cancer cell HepG2; 5 μM [1-3H] farnesyl pyrophosphate, 37° C., 45 minutes; read-out: Inhibiting activity (IC50, 10^−9M). As for the experimental part:
Squalene Synthase Inhibiting Activity
The squalene synthase inhibiting activity was measured using an enzyme solution obtained according to a preparing method described below as follows:
That is, an enzyme solution (protein 0.8 μg) prepared according to the following preparing method was added to a solution containing 5 μM [1-^3H] farnesyl pyrophosphate (specific activity […]), 1 mM NADPH (reduced type nicotinamide adenine dinucleotide phosphate), 5 mM MgCl2, 6 mM glutathione, 100 mM potassium phosphate buffer (pH 7.4) and a test drug (added as an aqueous solution or DMSO solution)(total amount 50 μl), which was reacted at 37° C. for 45 minutes. 150 μl of a mixed solution of chloroform and methanol (1:2) was added to stop the reaction, and 50 μl of chloroform and 50 μl of a 3N sodium hydroxide solution were added. 50 μl of the chloroform layer (lower layer) containing the reaction product, a main component of which is squalene, and 3 ml of toluene series liquid scintillator were mixed, and the radioactivity thereof was measured by a liquid scintillation counter.
The squalene synthase inhibiting activity was shown by the concentration at which 50% of the radioactivity […] into the chloroform layer (IC50, molar concentration (M)).
Preparation of Human Enzyme Solution
Human hepatic cancer cell HepG2 (about 1×10^9 cells) was grown in Dulbecco's modified Eagle medium (37° C., in the presence of 5%CO2) containing 10% bovine fetal serum, the resulting cells were suspended in 10 ml of ice-cooled buffer [100 mM potassium phosphate buffer (pH 7.4), 30 mM nicotinamide, 2.5 mM MgCl2], and ruptured by the ultrasonication (30 seconds, 2 times). The resulting sonicate was centrifuged at 10000× g for 20 minutes (4° C.). The resulting supernatant was centrifuged at 105000× g for 90 minutes (4° C.), then the sediment was suspended in an ice-cooled 100 mM potassium phosphate buffer (pH 7.4), and centrifuged again at 105000× g for 90 minutes (4° C.). This was suspended in an ice-cooled 100 mM potassium phosphate buffer (pH 7.4) (protein concentration about 4 mg/ml), which was used as an enzyme solution.

For `CCCS(=O)(=O)NC(=O)C[C@H]1O[C@H](c2cccc(OC)c2OC)c2cc(Cl)ccc2N(CC(C)(C)CO)C1=O` [Example 2, (3R,5S)-N-propanesulfonyl-7-chloro-5-(2,3-dimethoxyphenyl)-1-(3-hydroxy-2,2-dimethylpropyl)-2-oxo-1,2,3,5-tetrahydro-4,1-benzoxazepine-3-acetamide], the melting point lay in the range of 135 to 137 °C. In addition, the IC50 on squalene synthase came to 0.054 µM.
For `COc1cccc([C@H]2O[C@H](CC(=O)N[C@H](C)C(=O)O)C(=O)N(CC(C)(C)C)c3ccc(Cl)cc32)c1OC` [Example 18, (2R)-2-[[(3R,5S)-7-chloro-5-(2,3-dimethoxyphenyl)-1-neopentyl-2-oxo-1,2,3,5-tetrahydro-4,1-benzoxazepin-3-yl]acetyl]aminopropionic Acid] the same measures were 184 to 186 °C and 0.01 µM.
Take `COc1cccc([C@H]2O[C@H](CC(=O)NC[C@H]3CC[C@H](C(=O)O)CC3)C(=O)N(CC(C)(C)CO)c3ccc(Cl)cc32)c1OC` [Example 23, trans-4-[[(3R,5S)-7-chloro-5-(2,3-dimethoxyphenyl)-1-(3-hydroxy-2,2-dimethylpropyl)-2-oxo-1,2,3,5-tetrahydro-4,1-benzoxazepin-3-yl]acetyl]aminomethyl-1-cyclohexanecarboxylic acid]: the IC50 on squalene synthase amounted to 0.099 µM.
Regarding `COc1cccc([C@H]2O[C@H](CC(=O)NC[C@H]3CC[C@H](C(=O)O)CC3)C(=O)N(CC(C)(C)COC(C)=O)c3ccc(Cl)cc32)c1OC` [Example 24, trans-4-[[(3R,5S)-1-(3-acetoxy-2,2-dimethylpropyl)-7-chloro-5-(2,3-dimethoxyphenyl)-2-oxo-1,2,3,5-tetrahydro-4,1-benzoxazepin-3-yl]acetyl]aminomethyl-1-cyclohexanecarboxylic acid], the IC50 at squalene synthase worked out at 0.17 µM.
`COc1cccc([C@H]2O[C@H](CC(=O)NCCc3occc3C(=O)O)C(=O)N(CC(C)(C)CO)c3ccc(Cl)cc32)c1OC` [Example 26, 2-[2-[[[(3R,5S)-7-chloro-5-(2,3-dimethoxyphenyl)-1-(2,2-dimethyl-3-hydroxypropyl)-2-oxo-1,2,3,5-tetrahydro-4,1-benzoxazepin-3-yl]acetyl]amino]ethyl]furan-3-carboxylic acid] had a melting point of 126 to 129 °C. Further, the IC50 on squalene synthase is 0.025 µM.
For `COc1cccc([C@H]2O[C@H](CC(=O)NCc3ccoc3C(=O)O)C(=O)N(CC(C)(C)CO)c3ccc(Cl)cc32)c1OC` [Example 30, 3-[[[[(3R,5S)-7-chloro-5-(2,3-dimethoxyphenyl)-1-(2,2-dimethyl-3-hydroxypropyl)-2-oxo-1,2,3,5-tetrahydro-4,1-benzoxazepin-3-yl]acetyl]amino]methyl]furan-2-carboxylic acid], in that order: 125 to 128 °C and 0.0091 µM.
For `COc1cccc([C@H]2O[C@H](CC(=O)Nc3cccc(CCC(=O)O)c3)C(=O)N(CC(C)(C)CO)c3ccc(Cl)cc32)c1OC` [Example 35, 3-[3-[[(3R,5S)-7-chloro-5-(2,3-dimethoxyphenyl)-1-(3-hydroxy-2,2-dimethylpropyl)-2-oxo-1,2,3,5-tetrahydro-4,1-benzoxazepin-3-yl]acetyl]aminophenyl]propionic Acid] the same measures were 141 to 144 °C and 0.12 µM.
With `COc1ccc(CCC(=O)O)cc1NC(=O)C[C@H]1O[C@H](c2cccc(OC)c2OC)c2cc(Cl)ccc2N(CC(C)(C)CO)C1=O` [Example 37, 3-[3-[[(3R,5S)-7-chloro-5-(2,3-dimethoxyphenyl)-1-(3-hydroxy-2,2-dimethylpropyl)-2-oxo-1,2,3,5-tetrahydro-4,1-benzoxazepin-3-yl]acetyl]amino-4-methoxyphenyl]propionic Acid], the IC50 at squalene synthase stood at 0.094 µM.
On the same count and under the same terms, under `COc1cccc([C@H]2O[C@H](CC(=O)NCc3cccc(CCC(=O)O)c3)C(=O)N(CC(C)(C)CO)c3ccc(Cl)cc32)c1OC` [Example 64, 3-[3-[[[(3R,5S)-7-chloro-5-(2,3-dimethoxyphenyl)-1-(3-hydroxy-2,2-dimethylpropyl)-2-oxo-1,2,3,5-tetrahydro-4,1-benzoxazepin-3-yl]acetyl]aminomethyl]phenyl]propionic Acid] stands 0.037 µM.
Consider `COc1cccc([C@H]2O[C@H](CC(=O)Nc3ccc4oc(C(=O)O)c(C)c4c3)C(=O)N(CC(C)(C)CO)c3ccc(Cl)cc32)c1OC` [Example 160, 5-[[[(3R,5S)-7-Chloro-5-(2,3-dimethoxyphenyl)-1-(3-hydroxy-2,2-dimethylpropyl)-2-oxo-1,2,3,5-tetrahydro-4,1-benzoxazepin-3-yl]acetyl]amino]-3-methyl-1-benzofuran-2-carboxylic acid], for which the melting point was 175 to 176.5 °C.
For `COc1cccc([C@H]2O[C@H](CC(=O)Nc3cc(C)c4oc(C(=O)O)cc4c3)C(=O)N(CC(C)(C)CO)c3ccc(Cl)cc32)c1OC` [Example 161, 5-[[[(3R,5S)-7-Chloro-5-(2,3-dimethoxyphenyl)-1-(3-hydroxy-2,2-dimethylpropyl)-2-oxo-1,2,3,5-tetrahydro-4,1-benzoxazepin-3-yl]acetyl]amino]-7-methyl-1-benzofuran-2-carboxylic acid], the melting point was in the range of 180.7 to 182 °C.
On the same count and under the same terms, under `CCc1cc(NC(=O)C[C@H]2O[C@H](c3cccc(OC)c3OC)c3cc(Cl)ccc3N(CC(C)(C)CO)C2=O)cc2cc(C(=O)O)oc12` [Example 162, 5-[[2-[(3R,5S)-7-Chloro-5-(2,3-dimethoxyphenyl)-1-(3-hydroxy-2,2-dimethylpropyl)-2-oxo-1,2,3,5-tetrahydro-4,1-benzoxazepin-3-yl]acetyl]amino]-7-ethyl-1-benzofuran-2-carboxylic acid] stands 188 to 189 °C; under `CCCc1cc(NC(=O)C[C@H]2O[C@H](c3cccc(OC)c3OC)c3cc(Cl)ccc3N(CC(C)(C)CO)C2=O)cc2cc(C(=O)O)oc12` [Example 163, 5-[[[(3R,5S)-7-Chloro-5-(2,3-dimethoxyphenyl)-1-(3-hydroxy-2,2-dimethylpropyl)-2-oxo-1,2,3,5-tetrahydro-4,1-benzoxazepin-3-yl]acetyl]amino]-7-propyl-1-benzofuran-2-carboxylic acid], 198.5 to 199.5 °C; under `COc1cccc([C@H]2O[C@H](CC(=O)Nc3c(C)c(C)c4oc(C(=O)O)cc4c3C)C(=O)N(CC(C)(C)CO)c3ccc(Cl)cc32)c1OC` [Example 164, 5-[[[(3R,5S)-7-Chloro-5-(2,3-dimethoxyphenyl)-1-(3-hydroxy-2,2-dimethylpropyl)-2-oxo-1,2,3,5-tetrahydro-4,1-benzoxazepin-3-yl]acetyl]amino]-4,6,7-trimethyl-1-benzofuran-2-carboxylic acid], 246 to 248 °C.
The same measure, in the same setting: the value for `COc1cccc([C@H]2O[C@H](CC(=O)Nc3cc(Cl)cc4cc(C(=O)O)oc34)C(=O)N(CC(C)(C)CO)c3ccc(Cl)cc32)c1OC` [Example 165, 7-[[[(3R,5S)-7-Chloro-5-(2,3-dimethoxyphenyl)-1-(3-hydroxy-2,2-dimethylpropyl)-2-oxo-1,2,3,5-tetrahydro-5,1-benzoxazepin-3-yl]acetyl]amino]-5-chloro-1-benzofuran-2-carboxylic acid] was 179.2 to 180.2 °C.

In general, melting point refers to the temperature of the solid-liquid transition. One may read the IC50 as the concentration at which inhibition is half-maximal.

These data come from US20030078251A1, “Benzoxazepinones and their use as squalene synthase inhibitors” (priority 2000, published 2003).
